This assay deals with S. cerevisiae eIF2B mutant, luciferase reporter luminescence. In words: potency on yeast eIF2B luminescence signal – S. cerevisiae, mutant, wild-type, growth, dose response (AID 792).
The mark [1] stands for this setting: measured here: mutant yeast growth.
[2] abbreviates: S. cerevisiae wild-type, luminescence.

Inconclusive results are not listed. Active and inactive are the calls of the source. The rule behind the calls is not given here.

For orientation: IC50 means the concentration that inhibits the measured activity by half.

Consider `COC(=O)c1cccc(NC(=O)c2ccc(S(=O)(=O)N3CCN(C)CC3)cc2)c1`, for which the IC50 was > 100 µM (inactive). Under setting [1], this compound displayed an IC50 above 100 µM.

For `COc1ccc(Cl)cc1-n1c(N)c(C(N)=O)sc1=S`, the IC50 was > 100 µM (inactive). In addition, the IC50 under setting [1] was above 100 µM.

With `COc1ccc(OC)c2c(N3CCN(C)CC3)cc(C(F)(F)F)nc12`, the IC50 is > 100 µM (inactive). Further, the IC50 under setting [1] is above 100 µM.

As to `CCOCC(=O)Nc1cccc(NC(C)=O)c1`, the IC50 is > 100 µM (inactive). The IC50 under setting [1] is above 100 µM.

Turning to `CCCCNC(=O)OC1CCS(=O)(=O)C1` (stereo not given), the IC50 is > 100 µM (inactive). Besides, the IC50 under setting [1] is above 100 µM.

As for `Oc1ccc2ccc3cccc[n+]3c2c1`, the IC50 is > 100 µM (inactive). The compound further displayed an IC50 under setting [2] above 100 µM. This compound also gave an IC50 under setting [1] above 100 µM.

Turning to `Cc1cc(=O)[nH]c(SCc2cc(Cl)ccc2OC(F)F)n1`, the IC50 was > 100 µM (inactive). The compound further yielded a 50% inhibitory concentration (IC50) under setting [1] above 100 µM.

With `COCc1cc(=O)[nH]c(Nc2nc3ccc(C)cc3o2)n1`, the IC50 was > 100 µM (inactive). The IC50 under setting [1] was above 100 µM.

Turning to `O=C(Nc1ccc2nc(-c3ccc4nc[nH]c4c3)[nH]c2c1)c1cccs1`, the IC50 was > 100 µM (inactive). For the same compound, the IC50 under setting [1] is above 100 µM.

Take `CC1(C)Cc2c(sc3c2c(=N)n(Cc2ccco2)c(=O)n3Cc2ccc(F)cc2)CO1`: the IC50 is > 100 µM (inactive). Under setting [1], the half-inhibitory concentration (IC50) is above 100 µM.

As for `COC(=O)c1nn(-c2ccc3c(c2)CCN3C(C)=O)cc1O`, the IC50 entry was “inactive”. Besides, the IC50 under setting [2] was found to be 3.61 µM. Also, under setting [1], the IC50 was above 100 µM.

For `CCC(C)Oc1cccc(OCCCCN2C(=O)NC(C)(C)C2=O)c1` (stereo not given), the IC50 was > 100 µM (inactive). This compound also displayed an IC50 under setting [1] above 100 µM.

With `CCn1ncc(Br)c1C(=O)Nc1sc2c(c1C(N)=O)CCC2`, the IC50 was > 100 µM (inactive). Moreover, the IC50 under setting [1] was above 100 µM.

Turning to `CN(C)c1nc(N(C)C)nc(N(C#N)CCOc2ccccc2)n1`, the IC50 is > 100 µM (inactive). Also, the IC50 under setting [1] is above 100 µM.

For the compound `COc1ccc(OC)c(N(CC(=O)Nc2ccc(NC(C)=O)cc2)S(C)(=O)=O)c1`, the IC50 is > 100 µM (inactive). Under setting [1], the IC50 was above 100 µM.

As for `COC(=O)Cn1c2ccc(OC)cc2c2nc3ccccc3nc21`, the IC50 is > 100 µM (inactive). Under setting [1], this compound returned an IC50 above 100 µM.

As to `C=CCn1c(COc2ccccc2F)nnc1SCC(=O)Nc1cc2oc3ccccc3c2cc1OC`, the IC50 is > 100 µM (inactive). Under setting [1], this compound displayed an IC50 above 100 µM.

As for `NC(=O)CSc1nnc(-c2ccco2)n1N`, the IC50 is > 100 µM (inactive). For the same compound, the IC50 under setting [1] is above 100 µM.

With `CCn1c(CNc2nc3ccccc3n2C(C)C)nc2ccccc21`, the IC50 is > 100 µM (inactive). The same compound showed an IC50 under setting [1] above 100 µM.

As for `Cn1c(=O)cc(SCC(=O)NCCCN2CCOCC2)c2ccccc21`, the IC50 is > 100 µM (inactive). Moreover, under setting [1], the 50% inhibitory concentration (IC50) is above 100 µM.

With `CC(C)c1[nH]c(=O)c(C#N)c2c1COC(C)(C)C2`, the IC50 was > 100 µM (inactive). The IC50 under setting [1] was above 100 µM.

For the compound `Cc1csc(NC(=O)c2cccn2C)n1`, the IC50 result is “inactive”. The IC50 under setting [2] was determined as 16.4 µM. Moreover, the IC50 under setting [1] was above 100 µM.

For `CNc1nc2ccccc2n1/N=C/c1cccc(OC)c1OC`, the IC50 was > 100 µM (inactive). Under setting [1], this compound showed an IC50 above 100 µM.

Consider `CCOc1ccc(-n2cc(C(=O)N3CCC(C)CC3)c3cc(OC)c(OC)cc3c2=O)cc1`, for which the IC50 is > 100 µM (inactive). Further, under setting [1], the IC50 was above 100 µM.

With `CC(C)CCNC1=NCCCCC1`, the IC50 was > 100 µM (inactive). Also, under setting [1], the IC50 was above 100 µM.

`Nn1cnnc1SC1CCCCC1NS(=O)(=O)c1ccccc1` (stereo not given): the IC50 was > 100 µM (inactive). The concentration for half-maximal inhibition (IC50) under setting [1] is above 100 µM.

Take `CC(C)CNC(=O)c1cc2nc(C3CC3)cc(C(F)(F)F)n2n1`: the IC50 was > 100 µM (inactive). The compound also returned an IC50 under setting [1] above 100 µM.

In the case of `C=CCn1c(SCC(=O)Nc2cc(C)cc(C)c2)nnc1-c1cnccn1`, the IC50 was > 100 µM (inactive). For the same compound, the IC50 under setting [1] was above 100 µM.

`COc1cc(OC)nc(NC(=O)CCl)n1`: the IC50 was > 100 µM (inactive). In addition, under setting [1], the IC50 was above 100 µM.

In the case of `Cc1ccc(S(=O)(=O)N2CCOCC2)cc1C(=O)NCc1ccco1`, the IC50 was > 100 µM (inactive). The compound also displayed a half-maximal inhibitory concentration (IC50) under setting [1] above 100 µM.

For `C=CCN(C(=O)CCC(=O)O)C1CC(=O)N(c2ccc(OC)cc2)C1=O` (stereo not given), the IC50 was > 100 µM (inactive). In addition, the IC50 under setting [1] is above 100 µM.

As to `CCC(C)(C(=O)NC1CCCCC1)N(Cc1ccco1)C(=O)c1ccc2c(c1)OCO2` (stereo not given), the IC50 was > 100 µM (inactive). In addition, under setting [1], the IC50 is above 100 µM.

`CCC(C(=O)NC1CCCC1)N(C(=O)c1snc(C(N)=O)c1N)c1ccc2c(c1)OCCO2` (stereo not given): the IC50 was > 100 µM (inactive). For the same compound, under setting [1], the IC50 was above 100 µM.

With `COC(=O)c1ccc(NS(=O)(=O)N(C)C)cc1`, the IC50 was > 100 µM (inactive). In addition, the IC50 under setting [1] was above 100 µM.

As for `C=CCc1cccc(CNc2nc3ccccc3n2C(C)C)c1O`, the IC50 was > 100 µM (inactive). For the same compound, the IC50 under setting [1] was above 100 µM.

On to `Nn1c(CSc2nc3ccccc3o2)nnc1CSc1nc2ccccc2o1`, for which the IC50 was > 100 µM (inactive). Besides, the IC50 under setting [1] was above 100 µM.

Regarding `COC(=O)c1nn2c(C(F)(F)F)cc(-c3ccc(Br)o3)nc2c1Br`, the IC50 was > 100 µM (inactive). In addition, the half-maximal inhibitory concentration (IC50) under setting [1] was above 100 µM.

For the compound `CCC(C)N(C(=O)COC(=O)c1[nH]c(C)c(C(C)=O)c1C)C1CCS(=O)(=O)C1` (stereo not given), the IC50 was > 100 µM (inactive). The compound also had an IC50 under setting [1] above 100 µM.

For `CCCC(=O)Nc1sc(C(=O)OC)c(C)c1C(N)=O`, the IC50 was > 100 µM (inactive). Under setting [1], this compound returned a half-maximal inhibitory concentration (IC50) above 100 µM.

As for `CNC(=O)Cn1nc(-c2ccc(C)c(S(=O)(=O)N(C)C)c2)c2ccccc2c1=O`, the IC50 is > 100 µM (inactive). Under setting [1], the IC50 was above 100 µM.

As for `COc1ccc(S(=O)(=O)CCC(=O)N2c3ccccc3CC2C)cc1` (stereo not given), the IC50 was > 100 µM (inactive). This compound also came in with an IC50 under setting [1] above 100 µM.

For the compound `CN1CCc2nc(SCCOc3ccccc3)c(C#N)cc2C1`, the IC50 was > 100 µM (inactive). In addition, the concentration for half-maximal inhibition (IC50) under setting [1] was above 100 µM.

As to `C=CCN(C(=O)Cn1c(C(=O)OC)cc2oc(C)cc21)c1ccccc1`, the IC50 is > 100 µM (inactive). In addition, the half-inhibitory concentration (IC50) under setting [1] is above 100 µM.

Consider `COc1ccc(CCNC(=O)c2ccc(N3CCCC3=O)cc2)cc1OC`, for which the IC50 is > 100 µM (inactive). In addition, the IC50 under setting [2] is above 100 µM. Also, the IC50 under setting [1] was above 100 µM.

On to `Cc1nn(-c2ccccc2)c(Cl)c1/C=N/Nc1ccc(S(=O)(=O)Nc2ccccc2C(=O)O)cc1[N+](=O)[O-]`, for which the IC50 was > 100 µM (inactive). This compound also came in with an IC50 under setting [1] above 100 µM.

Turning to `O=c1c(Cl)c(N2CCCCC2)cnn1-c1nc2ccccc2[nH]1`, the IC50 result was “inactive”. The compound also returned an IC50 under setting [2] of 3.69 µM. This compound yielded a concentration for half-maximal inhibition (IC50) under setting [1] above 100 µM.

For the compound `CC(C)NC(=O)CCNS(=O)(=O)c1ccc(Br)cc1`, the IC50 is > 100 µM (inactive). This compound also returned an IC50 under setting [2] above 100 µM. Further, the IC50 under setting [1] came to 24.2 µM.

The record behind these values is PubChem BioAssay AID792 (PCMD, 2007).
